The text below walks through data of patent publication US10077261B2, “Imidazolin-5-one derivative useful as FASN inhibitors for the treatment of cancer” (Janssen Pharmaceutica NV, priority 2012, dated 2018).

In experiment [1] the test system is A2780 ovarian cells. Briefly: A2780 ovarian cell proliferation assay in lipid reduced medium, with palmitate (MTT). The format is cell-based. The conditions noted are these: Homo sapiens, A2780, 96 h; read-out: pIC50 A2780 Ovarian Cell, With Palmitate (converted). A digest of the protocol: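 In this palmitate-supplemented format, compound dilutions (30 μM down to 0.01 μM) are added to cells in lipid-reduced serum with 25 μM palmitate, 0.2% fatty-acid-free BSA and 0.25% ethanol. After four days (96 h) MTT absorbance at 544 nm is recorded and fitted by minimum sum of squares.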

Experiment [2] has as its system A2780 ovarian cells. Briefly: A2780 ovarian cell proliferation assay in lipid reduced medium, without palmitate (MTT). The conditions noted are these: Homo sapiens, A2780, 96 h; read-out: pIC50 A2780 Ovarian Cell, Without Palmitate (converted). The format is cell-based.
The target in experiment [3] is T1, hFASN enzyme (full length) (Homo sapiens, UniProt P49327).
T1 construct: 10 μL hFASN enzyme (full length, 300 ng, purified in house); made in house
Briefly: Fatty Acid Synthase (FASN) inhibition scintillation proximity assay. The format is biochemical. The settings on record: for inhibition at 10 µM: read-out: Human FASN % inhibition @ 10 μM, 10 μM test compound; for IC50: read-out: Human FASN pIC50 (converted). In short, it runs like this:
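Scintillation proximity format: in-house full-length enzyme, 300 ng per well, pH 7.5 phosphate/DTT buffer, ³H-acetyl-CoA and malonyl-CoA. Emission counted on LEADseeker at 610 nm at least 24 h after stopping.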
For orientation: In a scintillation proximity assay essentially only radioactivity close to the scintillant gives light.

The term inhibition denotes the relative decrease from the control value, in per cent.

T1 sequence (P49327 whole entry): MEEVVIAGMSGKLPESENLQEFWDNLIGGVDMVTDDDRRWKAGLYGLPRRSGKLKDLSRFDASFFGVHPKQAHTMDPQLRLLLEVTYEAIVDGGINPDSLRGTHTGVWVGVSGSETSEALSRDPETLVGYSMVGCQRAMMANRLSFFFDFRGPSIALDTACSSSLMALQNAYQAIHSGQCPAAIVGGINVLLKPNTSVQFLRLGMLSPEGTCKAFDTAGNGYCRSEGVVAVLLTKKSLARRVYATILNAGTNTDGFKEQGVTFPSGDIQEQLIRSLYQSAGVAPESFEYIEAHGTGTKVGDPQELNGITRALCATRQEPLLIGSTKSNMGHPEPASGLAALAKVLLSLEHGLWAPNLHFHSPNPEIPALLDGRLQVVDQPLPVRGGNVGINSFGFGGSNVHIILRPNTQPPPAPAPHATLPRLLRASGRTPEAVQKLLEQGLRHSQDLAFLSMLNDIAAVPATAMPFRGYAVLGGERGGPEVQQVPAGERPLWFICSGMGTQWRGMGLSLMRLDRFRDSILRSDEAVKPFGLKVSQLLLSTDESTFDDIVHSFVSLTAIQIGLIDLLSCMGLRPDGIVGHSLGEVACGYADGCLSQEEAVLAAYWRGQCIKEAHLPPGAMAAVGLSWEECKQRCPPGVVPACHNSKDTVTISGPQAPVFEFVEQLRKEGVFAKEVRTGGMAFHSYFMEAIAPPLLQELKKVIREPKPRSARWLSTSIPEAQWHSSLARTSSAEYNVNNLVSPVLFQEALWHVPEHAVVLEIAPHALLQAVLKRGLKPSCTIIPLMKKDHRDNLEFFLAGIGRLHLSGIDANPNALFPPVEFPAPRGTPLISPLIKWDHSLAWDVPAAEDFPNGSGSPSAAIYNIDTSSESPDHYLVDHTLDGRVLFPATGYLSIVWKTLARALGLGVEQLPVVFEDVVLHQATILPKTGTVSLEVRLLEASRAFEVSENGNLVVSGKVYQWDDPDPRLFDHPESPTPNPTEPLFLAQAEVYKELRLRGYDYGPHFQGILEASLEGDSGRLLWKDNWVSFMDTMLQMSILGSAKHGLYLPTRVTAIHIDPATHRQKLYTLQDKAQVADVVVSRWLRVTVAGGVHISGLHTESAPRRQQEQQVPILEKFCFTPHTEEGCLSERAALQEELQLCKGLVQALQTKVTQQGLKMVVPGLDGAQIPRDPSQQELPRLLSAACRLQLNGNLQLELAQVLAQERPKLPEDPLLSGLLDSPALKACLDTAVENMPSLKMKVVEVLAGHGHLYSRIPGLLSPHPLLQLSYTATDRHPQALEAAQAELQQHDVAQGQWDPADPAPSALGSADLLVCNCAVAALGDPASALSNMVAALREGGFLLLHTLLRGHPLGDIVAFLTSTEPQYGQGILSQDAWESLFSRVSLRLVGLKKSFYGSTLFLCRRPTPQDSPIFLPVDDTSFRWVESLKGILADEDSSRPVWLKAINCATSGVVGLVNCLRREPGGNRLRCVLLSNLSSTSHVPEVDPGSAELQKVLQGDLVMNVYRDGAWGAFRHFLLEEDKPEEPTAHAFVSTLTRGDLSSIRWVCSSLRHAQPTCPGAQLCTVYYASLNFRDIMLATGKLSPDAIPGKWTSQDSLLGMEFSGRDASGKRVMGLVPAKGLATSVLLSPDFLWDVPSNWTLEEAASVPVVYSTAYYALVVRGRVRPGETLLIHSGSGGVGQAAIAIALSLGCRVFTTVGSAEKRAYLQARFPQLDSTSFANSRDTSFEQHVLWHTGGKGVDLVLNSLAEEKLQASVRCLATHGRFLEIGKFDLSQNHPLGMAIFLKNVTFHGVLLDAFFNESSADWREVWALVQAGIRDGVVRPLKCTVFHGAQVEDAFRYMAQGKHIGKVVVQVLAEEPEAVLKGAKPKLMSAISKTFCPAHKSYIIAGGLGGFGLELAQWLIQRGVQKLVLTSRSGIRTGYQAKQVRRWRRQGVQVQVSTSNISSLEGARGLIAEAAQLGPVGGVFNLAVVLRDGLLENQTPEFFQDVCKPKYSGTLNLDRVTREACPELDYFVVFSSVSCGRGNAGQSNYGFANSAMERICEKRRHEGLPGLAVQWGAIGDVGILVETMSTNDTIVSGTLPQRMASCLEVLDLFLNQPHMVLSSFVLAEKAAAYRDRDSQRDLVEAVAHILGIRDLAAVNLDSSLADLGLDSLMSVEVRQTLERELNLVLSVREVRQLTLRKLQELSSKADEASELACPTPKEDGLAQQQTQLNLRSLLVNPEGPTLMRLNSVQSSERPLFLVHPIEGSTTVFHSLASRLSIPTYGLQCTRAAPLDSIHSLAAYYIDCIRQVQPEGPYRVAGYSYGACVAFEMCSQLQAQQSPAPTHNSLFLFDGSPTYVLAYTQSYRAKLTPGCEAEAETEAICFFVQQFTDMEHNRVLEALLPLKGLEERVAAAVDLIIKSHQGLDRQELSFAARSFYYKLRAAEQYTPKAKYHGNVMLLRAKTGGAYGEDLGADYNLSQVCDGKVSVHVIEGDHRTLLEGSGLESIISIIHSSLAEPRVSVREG

As to `CS(=O)(=O)c1cccc(-c2ccc(C3=NC4(CC4)C(=O)N3C[C@@H]3CCN(C(=O)C4CC4)C3)c(F)c2)c1` [compound 634, 6-{[(3R)-1-(Cyclopropylcarbonyl)pyrrolidin-3-yl]methyl}-5-[3-fluoro-3′-(methylsulfonyl)biphenyl-4-yl]-4,6-diazaspiro[2.4]hept-4-en-7-one], the IC50 was > 10 µM in the experiment on A2780 ovarian cells [1], 2 µM in the experiment on A2780 ovarian cells [2] and 3.02 µM in experiment [3]. The inhibition at 10 µM in experiment [3] turned out to be 68%.

As to `Cc1cc(-c2cccc(S(=O)(=O)C(C)C)c2)ccc1C1=NC2(CC2)C(=O)N1C[C@@H]1CCN(C(=O)C2CC2)C1` [compound 636, 6-{[(3R)-1-(Cyclopropylcarbonyl)pyrrolidin-3-yl]methyl}-5-{3-methyl-3′-[(1-methylethyl)sulfonyl]biphenyl-4-yl}-4,6-diazaspiro[2.4]hept-4-en-7-one], the IC50 in the experiment on A2780 ovarian cells [1] was > 10 µM; in the experiment with A2780 ovarian cells [2] it was ~5.89 µM; in experiment [3] it was 6.76 µM. Further, the inhibition at 10 µM in experiment [3] was found to be 59%.

With `Cc1cc(-c2cccc(S(=O)(=O)C3CC3)c2)ccc1C1=NC2(CC2)C(=O)N1CC1CN(C(=O)C2CC2)C1` [compound 640, 6-{[1-(Cyclopropylcarbonyl)azetidin-3-yl]methyl}-5-[3′-(cyclopropylsulfonyl)-3-methylbiphenyl-4-yl]-4,6-diazaspiro[2.4]hept-4-en-7-one], the IC50 with A2780 ovarian cells [1] is > 10 µM; in the experiment on A2780 ovarian cells [2] it was 8.32 µM; in experiment [3] it was 5.37 µM. Besides, the inhibition at 10 µM in experiment [3] is 64%.

On to `Cc1cc(-c2cccc(S(=O)(=O)C3CC3)c2)ccc1C1=NC2(CC2)C(=O)N1C[C@@H]1CCN(C(=O)C2CC2)C1` [compound 646, 6-{[(3R)-1-(Cyclopropylcarbonyl)pyrrolidin-3-yl]methyl}-5-[3′-(cyclopropylsulfonyl)-3-methylbiphenyl-4-yl]-4,6-diazaspiro[2.4]hept-4-en-7-one], for which the IC50 in the experiment with A2780 ovarian cells [1] is > 10 µM; in the experiment on A2780 ovarian cells [2], 2.45 µM; in experiment [3] it was 1.17 µM. Moreover, the inhibition at 10 µM in experiment [3] is 88%.

Turning to `Cn1c(-c2ccc(C3=NC4(CC4)C(=O)N3CC3CN(C(=O)C4CC4)C3)c(F)c2)nc2ccccc21` [compound 648, 6-{[1-(Cyclopropylcarbonyl)azetidin-3-yl]methyl}-5-[2-fluoro-4-(1-methyl-1H-benzimidazol-2-yl)phenyl]-4,6-diazaspiro[2.4]hept-4-en-7-one], the IC50 in the experiment with A2780 ovarian cells [1] is > 10 µM; with A2780 ovarian cells [2] it was 2.51 µM; in experiment [3] it was 2.57 µM. The inhibition at 10 µM in experiment [3] was determined as 74%.

Regarding `Cc1cc(-c2cccc(SC3CC3)c2)ccc1C1=NC2(CC2)C(=O)N1CC1CN(C(=O)C2CC2)C1` [compound 650, 6-{[1-(Cyclopropylcarbonyl)azetidin-3-yl]methyl}-5-[3′-(cyclopropylsulfanyl)-3-methylbiphenyl-4-yl]-4,6-diazaspiro[2.4]hept-4-en-7-one], the IC50 in the experiment on A2780 ovarian cells [1] is > 10 µM; with A2780 ovarian cells [2] it was 4.9 µM; in experiment [3], 1.35 µM. Further, the inhibition at 10 µM in experiment [3] came out at 84%.

Turning to `O=C(C1CC1)N1CC(CN2C(=O)C3(CC3)N=C2c2ccc(-c3cccc(S(=O)(=O)C4CC4)c3)cc2F)C1` [compound 651, 6-{[1-(Cyclopropylcarbonyl)azetidin-3-yl]methyl}-5-[3′-(cyclopropylsulfonyl)-3-fluorobiphenyl-4-yl]-4,6-diazaspiro[2.4]hept-4-en-7-one], the IC50 in the experiment with A2780 ovarian cells [1] is > 10 µM; in the experiment on A2780 ovarian cells [2], 2.75 µM; in experiment [3], 3.09 µM. In addition, in experiment [3], the inhibition at 10 µM amounted to 77%.

With `Cn1c(-c2ccc(C3=NC4(CC4)C(=O)N3CC3CN(C(=O)C4CC4)C3)c(F)c2)nc2ccc(F)cc21` [compound 653, 6-{[1-(Cyclopropylcarbonyl)azetidin-3-yl]methyl}-5-[2-fluoro-4-(6-fluoro-1-methyl-1H-benzimidazol-2-yl)phenyl]-4,6-diazaspiro[2.4]hept-4-en-7-one], the IC50 with A2780 ovarian cells [1] was > 10 µM; in the experiment with A2780 ovarian cells [2], 4.17 µM; in experiment [3] it was 3.02 µM. Besides, the inhibition at 10 µM in experiment [3] is 71%.

On to `Cc1nc2ccc(-c3ccc(C4=NC5(CC5)C(=O)N4CC4CN(C(=O)C5CC5)C4)c(F)c3)cc2n1C` [compound 654, 6-{[1-(Cyclopropylcarbonyl)azetidin-3-yl]methyl}-5-[4-(1,2-dimethyl-1H-benzimidazol-6-yl)-2-fluorophenyl]-4,6-diazaspiro[2.4]hept-4-en-7-one], for which the IC50 in the experiment with A2780 ovarian cells [1] is > 10 µM; in the experiment with A2780 ovarian cells [2] it was 2.19 µM; in experiment [3], 1.15 µM. For the same compound, the inhibition at 10 µM in experiment [3] was 83%.

With `COC(=O)N1CC[C@@H](CN2C(=O)C3(CCOCC3)N=C2c2ccc(-c3ccc4cccnc4c3)cc2)C1` [compound 664, Methyl (3S)-3-{[4-oxo-2-(4-quinolin-7-ylphenyl)-8-oxa-1,3-diazaspiro[4.5]dec-1-en-3-yl]methyl}pyrrolidine-1-carboxylate], the IC50 is > 10 µM in the experiment with A2780 ovarian cells [1], ~2.88 µM with A2780 ovarian cells [2] and 3.72 µM in experiment [3]. Moreover, the inhibition at 10 µM in experiment [3] turned out to be 87%.

Regarding `COC(=O)N1CC[C@@H](CN2C(=O)C3(CCOC3)N=C2c2ccc(-c3ccc4cccnc4c3)cc2)C1` (stereo partly drawn) [compound 683, Methyl (3S)-{[4-oxo-2-(4-quinolin-7-ylphenyl)-7-oxa-1,3-diazaspiro[4.4]non-1-en-3-yl]methyl}pyrrolidin-1-carboxylate], the IC50 in the experiment with A2780 ovarian cells [1] is > 10 µM; in the experiment on A2780 ovarian cells [2] it was > 10 µM; in experiment [3], 4.17 µM. Besides, the inhibition at 10 µM in experiment [3] is 63%.

On to `Cc1cc(-c2cccc(S(C)(=O)=O)c2)ccc1C1=NC2(CC2)C(=O)N1CC1CN(C(=O)C2CC2)C1` [compound 775, 6-((1-(cyclopropanecarbonyl)azetidin-3-yl)methyl)-5-(3-methyl-3′-(methylsulfonyl)-[1,1′-biphenyl]-4-yl)-4,6-diazaspiro[2.4]hept-4-en-7-one], for which the IC50 (in the experiment with A2780 ovarian cells [1]; with A2780 ovarian cells [2]; in experiment [3]) was > 10 µM each time. Moreover, in experiment [3], the inhibition at 10 µM was 34%.

For the compound `Cc1cc(-c2cccc(S(=O)(=O)C(C)C)c2)ccc1C1=NC2(CC2)C(=O)N1CC1CN(C(=O)C2CC2)C1` [compound 776, 6-((1-(cyclopropanecarbonyl)azetidin-3-yl)methyl)-5-(3′-(isopropylsulfonyl)-3-methyl-[1,1′-biphenyl]-4-yl)-4,6-diazaspiro[2.4]hept-4-en-7-one], the IC50 (with A2780 ovarian cells [1]; with A2780 ovarian cells [2]; in experiment [3]) was > 10 µM throughout. In addition, the inhibition at 10 µM in experiment [3] is 25%.

Consider `CS(=O)(=O)c1cccc(-c2ccc(C3=NC4(CC4)C(=O)N3CC3CN(C(=O)C4CC4)C3)c(F)c2)c1` [compound 777, 6-((1-(cyclopropanecarbonyl)azetidin-3-yl)methyl)-5-(3-fluoro-3′-(methylsulfonyl)-[1,1′-biphenyl]-4-yl)-4,6-diazaspiro[2.4]hept-4-en-7-one], for which the figures for the IC50 (with A2780 ovarian cells [1]; with A2780 ovarian cells [2]; in experiment [3]) were > 10 µM, 9.55 µM and > 10 µM, respectively. Moreover, the inhibition at 10 µM in experiment [3] worked out at 34%.

For the compound `CC(C)c1ccc(-c2ccc(C3=NC4(CC4)C(=O)N3CC3CN(C(=O)C4CC4)C3)cc2)cn1` [compound 784, 6-((1-(cyclopropanecarbonyl)azetidin-3-yl)methyl)-5-(4-(6-isopropylpyridin-3-yl)phenyl)-4,6-diazaspiro[2.4]hept-4-en-7-one], the IC50 was > 10 µM with A2780 ovarian cells [1], 5.89 µM in the experiment with A2780 ovarian cells [2] and > 10 µM in experiment [3]. For the same compound, the inhibition at 10 µM in experiment [3] came out at 14%.

As to `Cc1cc(-c2ccc(-c3ccnn3CC(C)C)cc2)ccc1C1=NC2(CC2)C(=O)N1CC1CN(C(=O)C2(C)CC2)C1` [compound 785], the IC50 is ~6.17 µM with A2780 ovarian cells [1], 3.89 µM in the experiment with A2780 ovarian cells [2] and > 10 µM in experiment [3]. Also, the inhibition at 10 µM in experiment [3] is 24%.

For `Cc1cc(-c2ccc(-c3ccnn3CC3CC3)cc2)ccc1C1=NC2(CC2)C(=O)N1CC1CN(C(=O)C2(C)CC2)C1` [compound 786, 5-(4′-(1-(cyclopropylmethyl)-1H-pyrazol-5-yl)-3-methyl-[1,1′-biphenyl]-4-yl)-6-((1-(1-methylcyclopeopanecarbonyl)azetidin-3-yl)methyl)-4,6-diazaspiro[2.4]hept-4-en-7-one], the IC50 was 5.89 µM in the experiment with A2780 ovarian cells [1], 6.76 µM in the experiment with A2780 ovarian cells [2] and > 10 µM in experiment [3]. Moreover, in experiment [3], the inhibition at 10 µM worked out at 31%.

With `Cc1cc(-c2nc3cc(Br)ccc3cc2C)ccc1C1=NC2(CC2)C(=O)N1CC1CN(C(=O)C2(C)CC2)C1` [compound 787, 5-(4-(7-bromo-3-methylquinolin-2-yl)-2-methylphenyl)-6-((1-(1-methylcyclopropanecarbonyl)azetidin-3-yl)methyl)-4,6-diazaspiro[2.4]hept-4-en-7-one], the figures for the IC50 (in the experiment on A2780 ovarian cells [1]; in the experiment on A2780 ovarian cells [2]; in experiment [3]) were > 10 µM, 9.33 µM and > 10 µM, respectively. In experiment [3], the inhibition at 10 µM was 38%.

Turning to `O=C(C1CC1)N1CC(CN2C(=O)C3(CC3)N=C2c2ccc(-c3ccc4c(cnn4C4COC4)c3)cc2)C1` [compound 788, 6-((1-(cyclopropanecarbonyl)azetidin-3-yl)methyl)-5-(4-(1-(oxetan-3-yl)-1H-indazol-5-yl)phenyl)-4,6-diazaspiro[2.4]hept-4-en-7-one], the IC50 (with A2780 ovarian cells [1]; in the experiment with A2780 ovarian cells [2]; in experiment [3]) was > 10 µM throughout. Also, in experiment [3], the inhibition at 10 µM worked out at 14%.
